Data reported in patent US9409952B2, “Peptide-compound cyclization method” (Chugai Seiyaku Kabushiki Kaisha, priority 2011, dated 2016).
Read-outs that look alike come from different tables or passages of the source. Starred links: 1 amine or outer side, 2 acyl side, 3 side chain; linkers in the order of their positions; H or OH if unused. Positions of bridges follow the written chain, without caps; N, C: chain ends. Non-standard residues stand in square brackets, D forms with d. Residues, ends and D or L forms follow the SMILES beside them. *: point of attachment. NMeF = CN[C@@H](Cc1ccccc1)C(=O)O; NMeGABA = CN(CCCC(=O)[*:2])[*:1]; NMeβAla = CN(CCC(=O)[*:2])[*:1]; NMeL = CN[C@@H](CC(C)C)C(=O)O; NMeV = CN[C@H](C(=O)O)C(C)C; NMeA = CN[C@@H](C)C(=O)O; Piperidide = C1CCN(*)CC1; dNMeA = CN[C@H](C)C(=O)O; Sar = CNCC(=O)O; tBu = CC(C)(C)*

Legend:
[1] = PAMPA (parallel artificial membrane permeability assay); format: in vitro ADME; conditions: PAMPA
Outline: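 Artificial membrane was 10% (w/v) egg lecithin plus 0.5% (w/v) cholesterol in dodecane on a PVDF filter. A 10 mM DMSO stock was added at 0.5% (v/v) to donor buffer (50 mM MOPSO, pH 6.5, 5.0% glycocholic acid). After 18 h at 37 °C, LC/MS or LC/UV gave donor and acceptor levels for Pe.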

[2] = Metabolic stability in human hepatic microsome; format: in vitro ADME; conditions: microsomes
[3] = membrane permeation rate (Pe), 50 mM MOPSO buffer pH 6.5 with 5.0% glycocholic acid, 37° C., 18 hours, read-out: iPAMPA Pe
[4] = pH 7.4, human hepatic microsome, NADPH(+), read-out: CL NADPH(+)

| Structure (SMILES) | Papp at 18 hours, 50 µM [1, 3] [×10⁻⁶ cm/s] | microsomal CLint at 1 uM [2, 4] [µL/min/mg] | Papp at 18 hours, 50 µM ([1]; pH 6.5) [×10⁻⁶ cm/s] | microsomal CLint at 1 uM ([2]; human, pH 7.4, CL NADPH(+)) [µL/min/mg] |
| --- | --- | --- | --- | --- |
| CC[C@H](C)[C@@H]1NC(=O)[C@H](CC(C)C)N(C)C(=O)[C@H](Cc2ccccc2)N(C)C(=O)CN(C)C(=O)[C@H](C)N(C)C(=O)[C@H](Cc2ccccc2)N(C)C(=O)[C@H](C)N(C)C(=O)[C@H]([C@@H](C)O)NC(=O)[C@H](C(C)C)N(C)C(=O)CCN(C)C(=O)C[C@@H](C(=O)N2CCCCC2)NC1=O [DP-516] ([NMeβAla][NMeV]T[NMeA][NMeF][NMeA][Sar][NMeF][NMeL]ID-Piperidide; lactam N-11) | 9.1 | 19 |  |  |
| CC(C)C[C@@H]1NC(=O)[C@H](CC(C)C)N(C)C(=O)[C@H](C)N(C)C(=O)C[C@@H](C(=O)N2CCCCC2)NC(=O)[C@H](CC(C)C)N(C)C(=O)[C@H](Cc2ccccc2)N(C)C(=O)[C@H](C)N(C)C(=O)[C@H]([C@@H](C)O)NC(=O)[C@H](Cc2ccccc2)N(C)C1=O [DP-520] ([NMeA][NMeL]L[NMeF]T[NMeA][NMeF][NMeL]D-Piperidide; lactam N-9) | 29 | 130 |  |  |
| CC(C)C[C@H]1C(=O)N(C)[C@@H](Cc2ccccc2)C(=O)N[C@H](C(=O)N2CCCCC2)CC(=O)N(C)CC(=O)N[C@@H]([C@@H](C)O)C(=O)N(C)[C@@H](C)C(=O)N[C@@H](COC(C)(C)C)C(=O)N(C)[C@@H](Cc2ccccc2)C(=O)N1C [DP-521] ([Sar]T[NMeA]S(tBu)[NMeF][NMeL][NMeF]D-Piperidide; lactam N-8) | 44 | 125 |  |  |
| CC(C)C[C@H]1C(=O)NCC(=O)N[C@H](C(=O)N2CCCCC2)CC(=O)N(C)CCC(=O)N[C@@H]([C@@H](C)O)C(=O)N(C)[C@@H](C)C(=O)N[C@@H](COC(C)(C)C)C(=O)N(C)[C@@H](Cc2ccccc2)C(=O)N1C [DP-522] ([NMeβAla]T[NMeA]S(tBu)[NMeF][NMeL]GD-Piperidide; lactam N-8) | 5.3 | 87 |  |  |
| CC(C)C[C@H]1C(=O)N[C@@H](COC(C)(C)C)C(=O)N[C@H](C(=O)N2CCCCC2)CC(=O)N(C)[C@@H](C)C(=O)N(C)[C@@H](Cc2ccccc2)C(=O)N(C)[C@@H](CC(C)C)C(=O)N[C@@H]([C@@H](C)O)C(=O)N(C)CC(=O)N1C [DP-523] ([NMeA][NMeF][NMeL]T[Sar][NMeL]S(tBu)D-Piperidide; lactam N-8) | 20 | 99 |  |  |
| CC(C)C[C@H]1C(=O)N[C@@H]([C@@H](C)O)C(=O)N(C)[C@@H](C)C(=O)N(C)[C@@H](CC(C)C)C(=O)N(C)[C@@H](Cc2ccccc2)C(=O)N[C@H](C(=O)N2CCCCC2)CC(=O)N(C)CCCC(=O)N(C)[C@@H](C)C(=O)N1C [DP-524] ([NMeGABA][NMeA][NMeL]T[NMeA][NMeL][NMeF]D-Piperidide; lactam N-8) | 16 | 162 |  |  |
| CC(C)C[C@H]1C(=O)N(C)[C@@H](CC(C)C)C(=O)N[C@H](C(=O)N2CCCCC2)CC(=O)N(C)CCCC(=O)N(C)[C@@H](Cc2ccccc2)C(=O)N[C@@H]([C@@H](C)O)C(=O)N(C)CC(=O)N[C@@H](COC(C)(C)C)C(=O)N1C [DP-525] ([NMeGABA][NMeF]T[Sar]S(tBu)[NMeL][NMeL]D-Piperidide; lactam N-8) | 22 | 86 |  |  |
| CC(C)C[C@H]1C(=O)N(C)[C@@H](Cc2ccccc2)C(=O)N[C@H](C(=O)N2CCCCC2)CC(=O)N[C@H](C(C)C)C(=O)N[C@@H](C)C(=O)N[C@@H]([C@@H](C)O)C(=O)N(C)[C@@H](C)C(=O)N[C@@H](Cc2ccccc2)C(=O)N1C [DP-526] ([dV]AT[NMeA]F[NMeL][NMeF]D-Piperidide; lactam N-8) | 14 | 49 |  |  |
| CC(C)C[C@H]1C(=O)N[C@H](C(=O)N2CCCCC2)CC(=O)N(C)[C@H](C)C(=O)N(C)[C@@H](Cc2ccccc2)C(=O)N(C)[C@@H](CC(C)C)C(=O)N[C@@H]([C@@H](C)O)C(=O)N(C)CC(=O)N[C@@H](COC(C)(C)C)C(=O)N1C [DP-527] ([dNMeA][NMeF][NMeL]T[Sar]S(tBu)[NMeL]D-Piperidide; lactam N-8) | 11 | 30 |  |  |
| CC(C)C[C@H]1C(=O)N[C@@H](COC(C)(C)C)C(=O)N[C@H](C(=O)N2CCCCC2)CC(=O)N[C@H](C)C(=O)N(C)[C@@H](Cc2ccccc2)C(=O)N(C)[C@@H](CC(C)C)C(=O)N[C@@H]([C@@H](C)O)C(=O)N(C)CC(=O)N1C [DP-528] ([dA][NMeF][NMeL]T[Sar][NMeL]S(tBu)D-Piperidide; lactam N-8) | 13 | 55 |  |  |
| CC(C)C[C@H]1C(=O)N[C@@H](COC(C)(C)C)C(=O)N[C@H](C(=O)N2CCCCC2)CC(=O)N[C@H](C)C(=O)N(C)[C@@H](Cc2ccccc2)C(=O)N(C)[C@@H](CC(C)C)C(=O)N[C@@H]([C@@H](C)O)C(=O)N(C)[C@@H](C)C(=O)N1C [DP-529] ([dA][NMeF][NMeL]T[NMeA][NMeL]S(tBu)D-Piperidide; lactam N-8) | 23 | 100 |  |  |
| CC(C)C[C@@H]1NC(=O)[C@H](Cc2ccccc2)N(C)C(=O)[C@H]([C@@H](C)O)NC(=O)[C@H](Cc2ccccc2)N(C)C(=O)[C@H](C)N(C)C(=O)[C@H](C)NC(=O)C[C@@H](C(=O)N2CCCCC2)NC(=O)[C@@H]2CCCN2C1=O [DP-530] (A[NMeA][NMeF]T[NMeF]LPD-Piperidide; lactam N-8) |  |  | 11 | 37 |
| CC(C)C[C@H]1C(=O)N[C@H](C(=O)N2CCCCC2)CC(=O)N(C)CC(=O)N[C@@H]([C@@H](C)O)C(=O)N(C)[C@@H](C)C(=O)N[C@@H](COC(C)(C)C)C(=O)N(C)[C@@H](Cc2ccccc2)C(=O)N1C [DP-531] ([Sar]T[NMeA]S(tBu)[NMeF][NMeL]D-Piperidide; lactam N-7) | 5.8 | 42 |  |  |
| CC(C)C[C@H]1C(=O)N[C@H](C(=O)N2CCCCC2)CC(=O)N(C)CCC(=O)N[C@@H]([C@@H](C)O)C(=O)N(C)[C@@H](C)C(=O)N[C@@H](COC(C)(C)C)C(=O)N(C)[C@@H](Cc2ccccc2)C(=O)N1C [DP-532] ([NMeβAla]T[NMeA]S(tBu)[NMeF][NMeL]D-Piperidide; lactam N-7) | 20 | 105 |  |  |
| CC(C)C[C@H]1C(=O)N[C@H](C(=O)N2CCCCC2)CC(=O)N(C)[C@@H](C)C(=O)N(C)[C@@H](Cc2ccccc2)C(=O)N(C)[C@@H](CC(C)C)C(=O)N[C@@H]([C@@H](C)O)C(=O)N(C)CC(=O)N1C [DP-533] ([NMeA][NMeF][NMeL]T[Sar][NMeL]D-Piperidide; lactam N-7) | 10 | 86 |  |  |
| CC(C)C[C@H]1C(=O)N(C)CC(=O)N(C)[C@@H](Cc2ccccc2)C(=O)N[C@@H](COC(C)(C)C)C(=O)N[C@H](C(=O)N2CCCCC2)CC(=O)N(C)CCCC(=O)N[C@@H]([C@@H](C)O)C(=O)N1C [DP-534] ([NMeGABA]T[NMeL][Sar][NMeF]S(tBu)D-Piperidide; lactam N-7) | 6.3 | 55 |  |  |
| CC(C)C[C@H]1C(=O)N[C@H](C(=O)N2CCCCC2)CC(=O)N(C)CCCC(=O)N(C)[C@@H](Cc2ccccc2)C(=O)N[C@@H]([C@@H](C)O)C(=O)N(C)CC(=O)N[C@@H](COC(C)(C)C)C(=O)N1C [DP-535] ([NMeGABA][NMeF]T[Sar]S(tBu)[NMeL]D-Piperidide; lactam N-7) | 21 | 129 |  |  |
| CC(C)C[C@H]1C(=O)N[C@H](C(=O)N2CCCCC2)CC(=O)N(C)[C@H](C)C(=O)N(C)[C@@H](CC(C)C)C(=O)N[C@@H]([C@@H](C)O)C(=O)N(C)CC(=O)N[C@@H](COC(C)(C)C)C(=O)N1C [DP-536] ([dNMeA][NMeL]T[Sar]S(tBu)[NMeL]D-Piperidide; lactam N-7) | 9.9 | 113 |  |  |
| CC(C)C[C@H]1C(=O)N[C@H](C(=O)N2CCCCC2)CC(=O)N[C@H](C)C(=O)N(C)[C@@H](Cc2ccccc2)C(=O)N(C)[C@@H](CC(C)C)C(=O)N[C@@H]([C@@H](C)O)C(=O)N(C)CC(=O)N1C [DP-537] ([dA][NMeF][NMeL]T[Sar][NMeL]D-Piperidide; lactam N-7) | 10 | 78 |  |  |
| CC(C)C[C@H]1C(=O)N[C@@H]([C@@H](C)O)C(=O)N(C)[C@@H](C)C(=O)N[C@H](C(=O)N2CCCCC2)CC(=O)N[C@H](C)C(=O)N(C)[C@@H](C)C(=O)N(C)[C@@H](Cc2ccccc2)C(=O)N1C [DP-538] ([dA][NMeA][NMeF][NMeL]T[NMeA]D-Piperidide; lactam N-7) | 5.5 | 37 |  |  |
| CC(C)C[C@@H]1NC(=O)[C@H](Cc2ccccc2)N(C)C(=O)[C@H]([C@@H](C)O)NC(=O)[C@H](Cc2ccccc2)N(C)C(=O)[C@H](C)N(C)C(=O)[C@H](C)NC(=O)C[C@@H](C(=O)N2CCCCC2)NC1=O [DP-539] (A[NMeA][NMeF]T[NMeF]LD-Piperidide; lactam N-7) | 20 | 260 |  |  |
